Reference: patent publication US10696648B2, “Inhibitors of indoleamine 2,3-dioxygenase and methods of their use” (BRISTOL-MYERS SQUIBB COMPANY, priority 2016, dated 2020)

What follows are compounds tested against T1, human IDO1 (Homo sapiens, UniProt P14902) (assay: HEK293 cells stably expressing human IDO1, IDO inhibition assay (kynurenine, Ehrlich reagent)). Settings: 20 hours incubation, absorbance at 490 nm, read-out: HEK Human IDO-1 Bio Activity (IDO IC50).
T1 construct: expressed in transfected cells
T1 sequence (P14902 whole entry): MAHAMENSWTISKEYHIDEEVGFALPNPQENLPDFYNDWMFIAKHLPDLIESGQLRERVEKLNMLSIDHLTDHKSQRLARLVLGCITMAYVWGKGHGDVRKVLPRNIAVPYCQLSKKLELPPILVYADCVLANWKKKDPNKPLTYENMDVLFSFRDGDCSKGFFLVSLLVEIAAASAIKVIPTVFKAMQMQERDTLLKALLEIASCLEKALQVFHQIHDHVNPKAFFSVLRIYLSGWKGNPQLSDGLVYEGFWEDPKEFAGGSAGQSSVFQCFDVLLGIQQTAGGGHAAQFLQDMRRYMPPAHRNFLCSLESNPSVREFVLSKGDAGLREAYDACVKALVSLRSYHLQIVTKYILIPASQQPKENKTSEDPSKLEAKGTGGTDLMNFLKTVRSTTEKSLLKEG
Type: cell-based
Description: HEK293 cells were transfected with a pCDNA-based mammalian expression vector harboring human IDO1 cDNA (NM 002164.2) by electroporation. They were cultured in medium (DMEM with 10% FBS) containing 1 mg/ml G418 for two weeks. Clones of HEK293 cells that stably expressed human IDO1 protein were selected and expanded for IDO inhibition assay. The human IDO1/HEK293 cells were seeded at 10,000 cells per 50 μL per well with RPMI/phenol red free media contains 10% FBS in a 384-well black wall clear bottom tissue culture plate (Matrix Technologies LLC) 100 nL of certain concentration of compound was then added to each well using ECHO liquid handling systems. The cells were incubated for 20 hours in 37° C. incubator with 5% CO2. The compound treatments were stopped by adding trichloroacetic acid (Sigma-Aldrich) to a final concentration at 0.2%. The cell plate was further incubated at 50° C. for 30 minute. The equal volume supernatant (20 μL) and 0.2% (w/v) Ehrlich reagent (4-dimethylaminobenzaldehyde, Sigma-Aldrich) in glacial acetic acid were mixed in a new clear bottom 384-well plate. This plate was then incubated at room temperature for 30 minute. The absorbance at 490 nm was measured on Envision plate reader. Compound IC50 values were calculated using the counts of 500 nM of a reference standard treatment as one hundred percent inhibition, and counts of no compound but DMSO treatment as zero percent inhibition.
With `COc1ccc(CN(C(=O)NC2CC2)C2CCC(c3ccccc3)CC2)cc1` (centres unmarked) [Example 45, 3-cyclopropyl-1-(4-methoxybenzyl)-1-((1r,4r)-4-phenylcyclo-hexyl)urea] the IC50 was < 1000 nM. With `C[C@H](NC(=O)N(Cc1ccccc1)[C@H]1CC[C@H](c2ccnc3ccc(F)cc32)CC1)c1ccc(Cl)cc1` [Example 39, 1-benzyl-3-((S)-1-(4-chlorophenyl)ethyl)-1-((1r,4S)-4-(6-fluoroquinolin-4-yl)cyclohexyl)urea] the IC50 was < 10000 nM. `N#Cc1ccc(NC(=O)N(Cc2ccccc2)[C@H]2CC[C@H](c3ccnc4ccc(F)cc43)CC2)cc1` [Example 22, 1-benzyl-3-(4-cyanophenyl)-1-(trans-4-(6-fluoroquinolin-4-yl)cyclohexyl)urea] was tested, and the IC50 was < 10000 nM. For `CCN(C(=O)N[C@@H](C)c1ccc(Cl)cc1)[C@H]1CC[C@H](c2ccnc3ccc(F)cc32)CC1` [Example 37, 3-((S)-1-(4-chlorophenyl)ethyl)-1-ethyl-1-((1r,4S)-4-(6-fluoroquinolin-4-yl)cyclohexyl)urea], the IC50 was < 1000 nM. For `CCN(C(=O)Nc1ccc(Cl)cc1)[C@H]1CC[C@H](c2ccnc3ccc(F)cc32)CC1` [Example 16, 3-(4-Chlorophenyl)-1-ethyl-1-(trans-4-(6-fluoroquinolin-4-yl)cyclohexyl)urea], the IC50 was < 100 nM. `C[C@H](NC(=O)N(C)[C@H]1CC[C@H](c2ccnc3ccc(F)cc32)CC1)c1ccc(Cl)cc1` [Example 36, 3-((S)-1-(4-chlorophenyl)ethyl)-1-((1r,4S)-4-(6-fluoroquinolin-4-yl)cyclohexyl)-1-methylurea] was tested, and the IC50 was < 1000 nM. For `CCOc1ccc(NC(=O)N(Cc2ccc(OC)cc2)[C@H]2CC[C@H](c3ccccc3)CC2)cc1` [Example 13, 3-(4-ethoxyphenyl)-1-(4-methoxybenzyl)-1-(trans-4-phenylcyclohexyl)urea], the IC50 was < 1000 nM. For `COc1ccc(CN(C(=O)Nc2ccc(F)cc2)[C@H]2CC[C@H](c3ccccc3)CC2)cc1` [Example 9, 3-(4-fluorophenyl)-1-(4-methoxybenzyl)-1-(trans-4-phenylcyclohexyl)urea], the IC50 was < 1000 nM. For `CCN(C(=O)Nc1ccc(Cl)cc1)[C@H]1CC[C@@H](c2ccnc3ccc(F)cc32)CC1` [Example 17, 3-(4-chlorophenyl)-1-ethyl-1-(cis-4-(6-fluoroquinolin-4-yl)cyclohexyl)urea], the IC50 was < 1000 nM. For `COc1ccc(CN(C(=O)Nc2ccc(OC(F)(F)F)cc2)[C@H]2CC[C@H](c3ccccc3)CC2)cc1` [Example 10, 1-(4-methoxybenzyl)-1-(trans-4-phenylcyclohexyl)-3-(4-(trifluoromethoxy)phenyl)urea], the IC50 was < 1000 nM. With `O=C(Nc1ccc(Cl)cc1F)N(Cc1ccccc1)[C@H]1CC[C@H](c2ccnc3ccc(F)cc32)CC1` [Example 21, 1-benzyl-3-(4-chloro-2-fluorophenyl)-1-(trans-4-(6-fluoroquinolin-4-yl)cyclohexyl)urea] the IC50 was < 1000 nM. `COc1ccc(CN(C(=O)Nc2ccc(C(F)(F)F)cc2)[C@H]2CC[C@H](c3ccccc3)CC2)cc1` [Example 12, 1-(4-methoxybenzyl)-1-(trans-4-phenylcyclohexyl)-3-(4-(trifluoromethyl)phenyl)urea] was tested, and the IC50 was < 100 nM. With `COc1ccc(CN(C(=O)NCc2ccc(F)cc2)C2CCC(c3ccccc3)CC2)cc1` (centres unmarked) [Example 32, 3-(4-fluorobenzyl)-1-(4-methoxybenzyl)-1-((1r,4r)-4-phenylcyclohexyl)urea] the IC50 was < 10000 nM. In the case of `CN(C(=O)Nc1ccc(OC(F)(F)F)cc1)C1CCN(c2ccnc3ccc(F)cc23)CC1` [Example 3, 1-(1-(6-Fluoroquinolin-4-yl)piperidin-4-yl)-1-methyl-3-(4-(trifluoromethoxy)phenyl)urea], the IC50 is reported as < 1000 nM. With `O=C(O)Cc1ccc(CN(C(=O)Nc2ccc(Cl)cc2)[C@H]2CC[C@@H](c3ccnc4ccc(F)cc43)CC2)cc1` [Example 28, 2-(4-((3-(4-chlorophenyl)-1-(cis-4-(6-fluoroquinolin-4-yl)cyclohexyl)ureido)methyl)phenyl)acetic acid] the IC50 was < 10000 nM. In the case of `O=C(O)Cc1ccc(CN(C(=O)Nc2ccccc2)[C@H]2CC[C@H](c3ccnc4ccc(F)cc43)CC2)cc1` [Example 27, 2-(4-((1-(trans-4-(6-fluoroquinolin-4-yl)cyclohexyl)-3-phenylureido)methyl)phenyl)acetic acid], the IC50 is reported as < 100 nM. `O=C(O)Cc1ccc(CN(C(=O)Nc2ccc(Cl)cc2)[C@H]2CC[C@H](c3ccnc4ccc(F)cc43)CC2)cc1` [Example 25, 2-(4-((3-(4-chlorophenyl)-1-(trans-4-(6-fluoroquinolin-4-yl)cyclohexyl)ureido)methyl)phenyl)acetic Acid] was tested, and the IC50 was < 1000 nM. `CN(C(=O)Nc1ccc(Cl)cc1)[C@H]1CC[C@H](c2ccnc3ccc(F)cc32)CC1` [Example 14, 3-(4-Chlorophenyl)-1-(trans-4-(6-fluoroquinolin-4-yl)cyclohexyl)-1-methylurea] was tested, and the IC50 was < 100 nM. For `CN(C(=O)Nc1ccc(Cl)cc1)C1CCN(c2ccnc3ccc(F)cc23)CC1` [Example 1, 3-(4-Chlorophenyl)-1-(1-(6-fluoroquinolin-4-yl)piperidin-4-yl)-1-methylurea], the IC50 was < 1000 nM. In the case of `COc1ccc(CN(C(=O)Nc2ccc(F)cc2F)[C@H]2CC[C@H](c3ccccc3)CC2)cc1` [Example 5, 3-(2,4-difluorophenyl)-1-(4-methoxybenzyl)-1-(trans-4-phenylcyclohexyl)urea], the IC50 is reported as < 1000 nM. With `COc1ccc(CN(C(=O)N[C@@H](C)c2ccc(Cl)cc2)[C@H]2CC[C@H](c3ccccc3)CC2)cc1` [Example 31, 3-((S)-1-(4-chlorophenyl)ethyl)-1-(4-methoxybenzyl)-1-((1r,4S)-4-phenylcyclohexyl)urea] the IC50 was < 1000 nM. In the case of `COc1ccc(CN(C(=O)N[C@H](C)c2ccc(F)cc2)C2CCC(c3ccccc3)CC2)cc1` (stereo partly drawn) [Example 33, 3-((R)-1-(4-fluorophenyl)ethyl)-1-(4-methoxybenzyl)-1-((1r,4R)-4-phenylcyclohexyl)urea], the IC50 is reported as < 100 nM. For `COc1ccc(CN(C(=O)Nc2ccc(F)c(F)c2)[C@H]2CC[C@H](c3ccccc3)CC2)cc1` [Example 8, 3-(3,4-difluorophenyl)-1-(4-methoxybenzyl)-1-(trans-4-phenylcyclohexyl)urea], the IC50 was < 1000 nM.
